From ChEMBL document CHEMBL1201861, “Genomics of Drug Sensitity in Cancer screening data, Wellcome Trust Sanger Institute”

Key:
Assay in all cases: cells
[1] = system: NCI-H716; assay type: functional, cell-based, Homo sapiens; conditions: Homo sapiens, NCI-H716;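 further: growth inhibition of human NCI-H716 cells, measured by a cell viability assay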
Description: SANGER: Inhibition of human NCI-H716 cell growth in a cell viability assay.

[2] = system: LU-165; assay type: functional, cell-based, Homo sapiens; conditions: Homo sapiens, LU-165
Description: SANGER: Inhibition of human LU-165 cell growth in a cell viability assay.

[3] = system: SNU-16; assay type: functional, cell-based, Homo sapiens; conditions: Homo sapiens, SNU-16;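 further: growth inhibition of human SNU-16 cells, determined with a cell viability readout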
Description: SANGER: Inhibition of human NCI-SNU-16 cell growth in a cell viability assay.

[4] = system: NCI-H1694; assay type: functional, cell-based, Homo sapiens; conditions: Homo sapiens, NCI-H1694;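 further: cell viability assay measuring inhibition of growth in human NCI-H1694 cells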
Description: SANGER: Inhibition of human NCI-H1694 cell growth in a cell viability assay.

[5] = system: NCI-H187; assay type: functional, cell-based, Homo sapiens; conditions: Homo sapiens, NCI-H187;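 further: growth inhibition of NCI-H187 cells, read out as cell viability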
Description: SANGER: Inhibition of human NCI-H187 cell growth in a cell viability assay.

[6] = system: CAL-148; assay type: functional, cell-based, Homo sapiens; conditions: Homo sapiens, CAL-148
Description: SANGER: Inhibition of human CAL-148 cell growth in a cell viability assay.

[7] = system: HCC1599; assay type: functional, cell-based, Homo sapiens; conditions: Homo sapiens, HCC1599;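 further: growth inhibition of HCC1599 cells, read out in a cell viability assay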
Description: SANGER: Inhibition of human HCC1599 cell growth in a cell viability assay.

[8] = system: ARH-77; assay type: functional, cell-based, Homo sapiens; conditions: Homo sapiens, ARH-77;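 further: growth inhibition of ARH-77 cells, read out by a cell viability assay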
Description: SANGER: Inhibition of human ARH-77 cell growth in a cell viability assay.

[9] = system: HC-1; assay type: functional, cell-based, Homo sapiens; conditions: Homo sapiens, HC-1;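 further: growth inhibition of HC-1 cells measured by a cell viability assay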
Description: SANGER: Inhibition of human HC-1 cell growth in a cell viability assay.

[10] = system: NCI-H510A; assay type: functional, cell-based, Homo sapiens; conditions: Homo sapiens, NCI-H510A;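 further: growth inhibition of NCI-H510A cells, read out with a cell viability assay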
Description: SANGER: Inhibition of human NCI-H510A cell growth in a cell viability assay.

[11] = system: NCI-H2196; assay type: functional, cell-based, Homo sapiens; conditions: Homo sapiens, NCI-H2196;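 further: cell viability assay used as the readout of growth inhibition in NCI-H2196 cells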
Description: SANGER: Inhibition of human NCI-H2196 cell growth in a cell viability assay.

[12] = system: NCI-H2081; assay type: functional, cell-based, Homo sapiens; conditions: Homo sapiens, NCI-H2081;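 further: growth inhibition of human NCI-H2081 cells, read out with a cell viability assay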
Description: SANGER: Inhibition of human NCI-H2081 cell growth in a cell viability assay.

[13] = system: NB17; assay type: functional, cell-based, Homo sapiens; conditions: Homo sapiens, NB17;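 further: growth inhibition of NB17 cells, read out with a cell viability assay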
Description: SANGER: Inhibition of human NB17 cell growth in a cell viability assay.

[14] = system: RL95-2; assay type: functional, cell-based, Homo sapiens; conditions: Homo sapiens, RL95-2;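 further: RL95-2 growth inhibition determined through a cell viability readout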
Description: SANGER: Inhibition of human RL95-2 cell growth in a cell viability assay.

[15] = system: EC-GI-10; assay type: functional, cell-based, Homo sapiens; conditions: Homo sapiens, EC-GI-10
Description: SANGER: Inhibition of human EC-GI-10 cell growth in a cell viability assay.

[16] = system: KMOE-2; assay type: functional, cell-based, Homo sapiens; conditions: Homo sapiens, KMOE-2;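 further: growth inhibition of human KMOE-2 cells, read out with a cell viability assay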
Description: SANGER: Inhibition of human KMOE-2 cell growth in a cell viability assay.

[17] = system: NCI-H524; assay type: functional, cell-based, Homo sapiens; conditions: Homo sapiens, NCI-H524;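 further: growth inhibition of human NCI-H524 cells, read out through a cell viability assay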
Description: SANGER: Inhibition of human NCI-H524 cell growth in a cell viability assay.

[18] = system: OVCAR-8; assay type: functional, cell-based; conditions: Homo sapiens;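 further: growth inhibition of human OVCAR-8 cells, read out by a cell viability assay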
Description: SANGER: Inhibition of human OVCAR-8 cell growth in a cell viability assay.

[19] = system: HTC-C3; assay type: functional, cell-based; conditions: Homo sapiens;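 further: inhibition of cell growth, read out with a cell viability assay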
Description: SANGER: Inhibition of human HTC-C3 cell growth in a cell viability assay.

[20] = system: KOSC-2; assay type: functional, cell-based; conditions: Homo sapiens;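 further: growth inhibition of KOSC-2 cells, read out by a cell viability assay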
Description: SANGER: Inhibition of human KOSC-2 cell growth in a cell viability assay.

[21] = system: NCI-H727; assay type: functional, cell-based; conditions: Homo sapiens;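 further: growth inhibition of human NCI-H727 cells, read out with a cell viability assay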
Description: SANGER: Inhibition of human NCI-H727 cell growth in a cell viability assay.

[22] = system: MG-63; assay type: functional, cell-based; conditions: Homo sapiens;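 further: growth inhibition of human MG-63 cells, read out with a cell viability assay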
Description: SANGER: Inhibition of human MG-63 cell growth in a cell viability assay.

[23] = system: SK-MEL-30; assay type: functional, cell-based; conditions: Homo sapiens;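 further: growth inhibition of SK-MEL-30 cells, determined with a cell viability assay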
Description: SANGER: Inhibition of human SK-MEL-30 cell growth in a cell viability assay.

[24] = system: SK-OV-3; assay type: functional, cell-based; conditions: Homo sapiens;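 further: growth inhibition of SK-OV-3 human cells, read out with a cell viability assay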
Description: SANGER: Inhibition of human SK-OV-3 cell growth in a cell viability assay.

[25] = system: KYSE-180; assay type: functional, cell-based; conditions: Homo sapiens;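 further: growth inhibition of KYSE-180 cells, read out with a cell viability assay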
Description: SANGER: Inhibition of human KYSE-180 cell growth in a cell viability assay.

[26] = system: HPAF-II; assay type: functional, cell-based; conditions: Homo sapiens;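 further: growth inhibition of HPAF-II cells, read out with a cell viability assay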
Description: SANGER: Inhibition of human HPAF-II cell growth in a cell viability assay.

[27] = system: BCPAP; assay type: functional, cell-based; conditions: Homo sapiens;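 further: growth inhibition of BCPAP cells, read out in a cell viability assay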
Description: SANGER: Inhibition of human BCPAP cell growth in a cell viability assay.

[28] = system: SW626; assay type: functional, cell-based; conditions: Homo sapiens;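 further: growth inhibition of SW626 cells, measured with a cell viability assay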
Description: SANGER: Inhibition of human SW626 cell growth in a cell viability assay.

[29] = system: DMS-273; assay type: functional, cell-based; conditions: Homo sapiens
Description: SANGER: Inhibition of human DMS-273 cell growth in a cell viability assay.

[30] = system: CAL-33; assay type: functional, cell-based; conditions: Homo sapiens;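 further: growth inhibition of CAL-33 cells, read out with a cell viability assay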
Description: SANGER: Inhibition of human CAL-33 cell growth in a cell viability assay.

[31] = system: PC-14; assay type: functional, cell-based; conditions: Homo sapiens;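 further: cell viability assay measuring inhibition of PC-14 cell growth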
Description: SANGER: Inhibition of human PC-14 cell growth in a cell viability assay.

[32] = system: J82; assay type: functional, cell-based; conditions: Homo sapiens;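 further: growth inhibition of J82 cells, read out with a cell viability assay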
Description: SANGER: Inhibition of human J82 cell growth in a cell viability assay.

[33] = system: AU565; assay type: functional, cell-based; conditions: Homo sapiens;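 further: cell viability assay measuring growth inhibition of human AU565 cells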
Description: SANGER: Inhibition of human AU565 cell growth in a cell viability assay.

[34] = system: EFM-19; assay type: functional, cell-based; conditions: Homo sapiens;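 further: growth inhibition of human EFM-19 cells, measured in a cell viability assay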
Description: SANGER: Inhibition of human EFM-19 cell growth in a cell viability assay.

[35] = system: PC-3; assay type: functional, cell-based; conditions: Homo sapiens;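 further: cell viability assay measuring growth inhibition of PC-3 cells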
Description: SANGER: Inhibition of human PC-3 cell growth in a cell viability assay.

[36] = system: DU-145; assay type: functional, cell-based; conditions: Homo sapiens
Description: SANGER: Inhibition of human DU-145 cell growth in a cell viability assay.

[37] = system: HuP-T4; assay type: functional, cell-based; conditions: Homo sapiens;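 further: cell viability assay measuring how much HuP-T4 cell growth is inhibited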
Description: SANGER: Inhibition of human HuP-T4 cell growth in a cell viability assay.

[38] = system: HCC 2998; assay type: functional, cell-based; conditions: Homo sapiens;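 further: growth inhibition of human HCC2998 cells, measured with a cell viability read-out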
Description: SANGER: Inhibition of human HCC2998 cell growth in a cell viability assay.

[39] = system: NCI-H1793; assay type: functional, cell-based; conditions: Homo sapiens;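 further: cell growth inhibition, read out by a cell viability assay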
Description: SANGER: Inhibition of human NCI-H1793 cell growth in a cell viability assay.

[40] = system: LK-2; assay type: functional, cell-based; conditions: Homo sapiens;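 further: growth inhibition of LK-2 cells, read out with a viability assay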
Description: SANGER: Inhibition of human LK-2 cell growth in a cell viability assay.

[41] = system: SK-MEL-28; assay type: functional, cell-based; conditions: Homo sapiens;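 further: growth inhibition of human SK-MEL-28 cells, read out with a cell viability assay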
Description: SANGER: Inhibition of human SK-MEL-28 cell growth in a cell viability assay.

[42] = system: HGC-27; assay type: functional, cell-based; conditions: Homo sapiens;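 further: growth inhibition of human HGC-27 cells, read out in a cell viability assay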
Description: SANGER: Inhibition of human HGC-27 cell growth in a cell viability assay.

[43] = system: UMC-11; assay type: functional, cell-based; conditions: Homo sapiens;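 further: growth inhibition of UMC-11 cells, read out with a cell viability assay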
Description: SANGER: Inhibition of human UMC-11 cell growth in a cell viability assay.

[44] = system: NUGC-3; assay type: functional, cell-based; conditions: Homo sapiens;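 further: growth inhibition of human NUGC-3 cells, read out with a cell viability assay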
Description: SANGER: Inhibition of human NUGC-3 cell growth in a cell viability assay.

[45] = system: MDA-MB-415; assay type: functional, cell-based; conditions: Homo sapiens
[46] = system: A-375; assay type: functional, cell-based; conditions: Homo sapiens;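 further: growth inhibition of A375 cells, read out with a cell viability assay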
Description: SANGER: Inhibition of human A375 cell growth in a cell viability assay.

[47] = system: KU-19-19; assay type: functional, cell-based; conditions: Homo sapiens
Description: SANGER: Inhibition of human KU-19-19 cell growth in a cell viability assay.

[48] = system: KYSE-510; assay type: functional, cell-based; conditions: Homo sapiens;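 further: cell viability readout used to measure how strongly growth of the cell line is suppressed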
Description: SANGER: Inhibition of human KYSE-510 cell growth in a cell viability assay.

[49] = system: BHT-101; assay type: functional, cell-based; conditions: Homo sapiens
Description: SANGER: Inhibition of human BHT-101 cell growth in a cell viability assay.

[50] = system: HOS; assay type: functional, cell-based; conditions: Homo sapiens;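 further: growth inhibition of human HOS cells, read out with a cell viability assay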
Description: SANGER: Inhibition of human HOS cell growth in a cell viability assay.

[51] = system: SK-LU-1; assay type: functional, cell-based; conditions: Homo sapiens;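 further: cell viability assay measuring growth inhibition of human SK-LU-1 cells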
Description: SANGER: Inhibition of human SK-LU-1 cell growth in a cell viability assay.

[52] = system: KYSE-270; assay type: functional, cell-based; conditions: Homo sapiens;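 further: cell growth inhibition measured with a viability assay in the human KYSE-270 line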
Description: SANGER: Inhibition of human KYSE-270 cell growth in a cell viability assay.

[53] = system: OE33; assay type: functional, cell-based; conditions: Homo sapiens;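 further: growth inhibition of human OE33 cells, measured by a cell viability assay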
Description: SANGER: Inhibition of human OE33 cell growth in a cell viability assay.

[54] = system: FTC-133; assay type: functional, cell-based; conditions: Homo sapiens
[55] = system: RVH-421; assay type: functional, cell-based; conditions: Homo sapiens
Description: SANGER: Inhibition of human RVH-421 cell growth in a cell viability assay.

[56] = system: KYSE-140; assay type: functional, cell-based; conditions: Homo sapiens;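 further: cell viability assay measuring growth inhibition in human KYSE-140 cells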
Description: SANGER: Inhibition of human KYSE-140 cell growth in a cell viability assay.

[57] = system: MDA-MB-175-VII; assay type: functional, cell-based; conditions: Homo sapiens
[58] = system: HO-1-N-1; assay type: functional, cell-based; conditions: Homo sapiens;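 further: growth inhibition of human HO-1-N-1 cells, read out with a cell viability assay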
Description: SANGER: Inhibition of human HO-1-N-1 cell growth in a cell viability assay.

[59] = system: HuCCT-1; assay type: functional, cell-based, HuCCT1; conditions: Homo sapiens;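 further: growth inhibition of HuCCT-1 cells, read out by a cell viability assay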
Description: SANGER: Inhibition of human HuCCT1 cell growth in a cell viability assay.

C=CC(=O)N1CCCC(Nc2nc(Nc3ccc(N(C)C(=O)CC)cc3)nc3[nH]cnc23)C1 (centres undefined)
IC50 [1]: > 10200 nM | IC50 [2]: > 10200 nM | IC50 [3]: > 10200 nM | IC50 [4]: > 10200 nM | IC50 [5]: > 10200 nM | IC50 [6]: > 10200 nM | IC50 [7]: > 10200 nM | IC50 [8]: > 10200 nM | IC50 [9]: > 10200 nM | IC50 [10]: > 10200 nM | IC50 ([11]; read-out: IC50): > 10200 nM | IC50 [12]: > 10200 nM | IC50 [13]: > 10200 nM | IC50 [14]: > 10200 nM | IC50 [15]: > 10200 nM | IC50 [16]: > 10200 nM | IC50 [17]: > 10200 nM

COc1ccc(N(C(=O)Oc2c(C)cccc2C)c2ccnc(Nc3ccc(N4CCN(C)CC4)cc3)n2)c(OC)c1
IC50 [1]: > 5120 nM | IC50 [2]: > 5120 nM | IC50 [3]: 15.7 nM | IC50 [4]: > 5120 nM | IC50 [5]: > 5120 nM | IC50 [6]: > 5120 nM | IC50 [7]: > 5120 nM | IC50 [8]: > 5120 nM | IC50 [9]: > 5120 nM | IC50 [10]: > 5120 nM | IC50 ([11]; read-out: IC50): > 5120 nM | IC50 [12]: > 5120 nM | IC50 [13]: 2630 nM | IC50 [14]: 1320 nM | IC50 [15]: > 5120 nM | IC50 [16]: > 5120 nM | IC50 [17]: > 5120 nM

Cc1cc(N2CCOCC2)cc2[nH]c(-c3c(NC[C@@H](O)c4cccc(Cl)c4)cc[nH]c3=O)nc12
IC50 [1]: > 5120 nM | IC50 [2]: > 5120 nM | IC50 [3]: 873 nM | IC50 [4]: > 5120 nM | IC50 [5]: 2340 nM | IC50 [6]: > 5120 nM | IC50 [7]: > 5120 nM | IC50 [8]: 2800 nM | IC50 [9]: > 5120 nM | IC50 [10]: > 5120 nM | IC50 ([11]; read-out: IC50): > 5120 nM | IC50 [12]: > 5120 nM | IC50 [13]: > 5120 nM | IC50 [14]: 813 nM | IC50 [15]: > 5120 nM | IC50 [16]: > 5120 nM | IC50 [17]: > 5120 nM

NC(=O)c1cccc(-c2cc(Nc3ccc(OC(F)(F)F)cc3)ncn2)c1
IC50 [1]: > 1280 nM | IC50 [2]: > 1280 nM | IC50 [3]: > 1280 nM | IC50 [4]: > 1280 nM | IC50 [5]: > 1280 nM | IC50 [6]: > 1280 nM | IC50 [7]: > 1280 nM | IC50 [8]: > 1280 nM | IC50 [9]: > 1280 nM | IC50 [10]: > 1280 nM | IC50 ([11]; read-out: IC50): > 1280 nM | IC50 [12]: > 1280 nM | IC50 [13]: > 1280 nM | IC50 [14]: > 1280 nM | IC50 [15]: > 1280 nM | IC50 [16]: > 1280 nM | IC50 [17]: > 1280 nM

C[C@@H](Oc1cc(-c2cnn(C3CCNCC3)c2)cnc1N)c1c(Cl)ccc(F)c1Cl [CRIZOTINIB]
IC50 [1]: > 2000 nM | IC50 [2]: > 2000 nM | IC50 [3]: > 2000 nM | IC50 [4]: > 2000 nM | IC50 [5]: > 2000 nM | IC50 [6]: > 2000 nM | IC50 [7]: > 2000 nM | IC50 [8]: > 2000 nM | IC50 [9]: > 2000 nM | IC50 [10]: > 2000 nM | IC50 ([11]; read-out: IC50): > 2000 nM | IC50 [12]: > 2000 nM | IC50 [13]: > 2000 nM | IC50 [14]: > 2000 nM | IC50 [15]: > 2000 nM | IC50 [16]: > 2000 nM | IC50 [17]: > 2000 nM

Cc1ccc(NC(=O)c2ccc(CN3CCN(C)CC3)cc2)cc1Nc1nccc(-c2cccnc2)n1 [IMATINIB]
IC50 [1]: > 2000 nM | IC50 [2]: > 2000 nM | IC50 [3]: > 2000 nM | IC50 [4]: > 2000 nM | IC50 [5]: > 2000 nM | IC50 [6]: > 2000 nM | IC50 [7]: > 2000 nM | IC50 [8]: > 2000 nM | IC50 [9]: > 2000 nM | IC50 [10]: > 2000 nM | IC50 [11]: > 2000 nM | IC50 [12]: > 2000 nM | IC50 [13]: > 2000 nM | IC50 [14]: > 2000 nM | IC50 [15]: > 2000 nM | IC50 [16]: > 2000 nM | IC50 [17]: > 2000 nM

C/C(=C\c1csc(C)n1)[C@@H]1C[C@@H]2O[C@]2(C)CCC[C@H](C)[C@H](O)[C@@H](C)C(=O)C(C)(C)[C@@H](O)CC(=O)O1 [PATUPILONE]
IC50 [18]: 1.06 nM | IC50 [19]: 2.94 nM | IC50 [20]: 2.83 nM | IC50 [1]: > 32 nM | IC50 [2]: > 32 nM | IC50 [3]: 31 nM | IC50 [21]: 1.8 nM | IC50 [4]: > 32 nM | IC50 [22]: 0.165 nM | IC50 [5]: > 32 nM | IC50 [23]: 1.34 nM | IC50 [24]: 1.5 nM | IC50 [25]: 0.601 nM | IC50 [26]: 21 nM | IC50 [27]: 0.581 nM | IC50 [28]: 1.98 nM | IC50 [6]: 6.26 nM | IC50 [29]: 1.62 nM | IC50 [30]: 1.52 nM | IC50 [31]: 4.21 nM | IC50 [32]: 1.41 nM | IC50 [33]: 4.1 nM | IC50 [7]: 11.9 nM | IC50 [34]: 10.6 nM | IC50 [35]: 23.4 nM | IC50 [36]: 0.721 nM | IC50 [37]: 2.54 nM | IC50 [38]: 1.05 nM | IC50 [8]: 6.13 nM | IC50 [9]: 3.98 nM | IC50 [10]: 11.9 nM | IC50 [39]: 21 nM | IC50 [40]: 4.86 nM | IC50 [41]: > 32 nM | IC50 [42]: 0.338 nM | IC50 [43]: > 32 nM | IC50 [44]: 1.16 nM | IC50 ([11]; read-out: IC50): > 32 nM | IC50 [45]: 20 nM | IC50 [12]: > 32 nM | IC50 [46]: 0.05 nM | IC50 [47]: > 32 nM | IC50 [48]: 0.0738 nM | IC50 [49]: 1.52 nM | IC50 [50]: 0.215 nM | IC50 [15]: > 32 nM | IC50 [51]: 0.866 nM | IC50 [52]: 0.445 nM | IC50 [53]: 7.63 nM | IC50 [54]: 30.5 nM | IC50 [16]: > 32 nM | IC50 [55]: 14.3 nM | IC50 [56]: 1.23 nM | IC50 [57]: > 32 nM | IC50 [17]: 23.1 nM | IC50 [58]: 1.66 nM | IC50 [59]: 2.61 nM
